Read-outs that look alike come from different tables or passages of the source. No end group written: not given here.
Experiments:
ACE [1] = molecular target: T1, ACE (Oryctolagus cuniculus, UniProt P12822); conditions: cited from earlier work
T1 sequence (P12822 34-1310): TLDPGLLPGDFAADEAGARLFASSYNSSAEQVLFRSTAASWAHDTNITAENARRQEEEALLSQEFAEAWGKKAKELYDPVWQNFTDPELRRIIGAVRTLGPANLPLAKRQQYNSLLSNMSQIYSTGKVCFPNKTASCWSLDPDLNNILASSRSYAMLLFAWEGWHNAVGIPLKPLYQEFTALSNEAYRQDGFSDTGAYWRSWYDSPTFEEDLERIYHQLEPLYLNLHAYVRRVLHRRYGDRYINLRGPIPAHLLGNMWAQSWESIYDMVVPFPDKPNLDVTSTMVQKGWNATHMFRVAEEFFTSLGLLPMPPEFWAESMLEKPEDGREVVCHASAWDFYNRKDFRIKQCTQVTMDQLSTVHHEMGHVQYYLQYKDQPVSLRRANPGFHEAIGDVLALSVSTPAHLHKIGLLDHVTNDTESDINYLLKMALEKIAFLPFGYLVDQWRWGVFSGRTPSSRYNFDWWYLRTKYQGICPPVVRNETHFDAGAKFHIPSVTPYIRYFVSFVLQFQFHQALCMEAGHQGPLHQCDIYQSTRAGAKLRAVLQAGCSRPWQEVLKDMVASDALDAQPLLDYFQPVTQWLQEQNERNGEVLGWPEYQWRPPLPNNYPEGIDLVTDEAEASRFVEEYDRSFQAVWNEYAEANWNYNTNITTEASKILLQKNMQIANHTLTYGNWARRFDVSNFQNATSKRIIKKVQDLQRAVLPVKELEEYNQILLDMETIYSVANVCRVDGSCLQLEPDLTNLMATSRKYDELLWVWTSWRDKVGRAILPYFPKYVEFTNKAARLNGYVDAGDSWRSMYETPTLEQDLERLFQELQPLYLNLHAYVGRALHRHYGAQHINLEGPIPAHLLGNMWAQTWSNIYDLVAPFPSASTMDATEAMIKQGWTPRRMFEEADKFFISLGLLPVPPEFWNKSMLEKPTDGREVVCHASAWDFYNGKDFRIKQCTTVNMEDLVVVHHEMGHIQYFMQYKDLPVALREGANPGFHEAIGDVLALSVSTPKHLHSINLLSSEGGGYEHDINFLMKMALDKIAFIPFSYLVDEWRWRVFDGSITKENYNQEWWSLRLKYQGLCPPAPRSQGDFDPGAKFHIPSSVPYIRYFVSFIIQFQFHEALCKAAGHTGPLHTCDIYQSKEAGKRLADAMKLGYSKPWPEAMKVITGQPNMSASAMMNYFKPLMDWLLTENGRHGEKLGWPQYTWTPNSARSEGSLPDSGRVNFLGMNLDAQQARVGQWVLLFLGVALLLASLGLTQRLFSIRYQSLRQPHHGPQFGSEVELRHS

ACE [2] = molecular target: T1, ACE; assay: ACE-inhibitory activity (HHL substrate, HPLC determination of hippuric acid); type: biochemical; conditions: synthetic peptides, n = 3, mean ± SD; read-out: IC50 value before digestion
Experimental: (§1) The methods were previously established in our laboratory. […] Then, 60 μL of peptide samples (1 mg/mL) and 20 μL of ACE solution (0.1 U/mL) were placed in a 37 °C water bath for 10 min, and 50 μL of hippuryl-histidyl-leucine (HHL) solution (1 mM) was added to react for 60 min. Finally, the reaction was terminated by adding 1 M HCL (100 μL). The sample solution of the determination group was replaced by 60 μL boric acid buffer solution (pH = 8.3 0.3 M NaCl) in the control tube. Then, 10 μL boric acid buffer was put into the blank control tube instead of the ACE solution used in the control group. Column chromatography conditions were as follows: Waters-C18, 5 μm, 4.6 mm × 250 mm; detection wavelength: 228 nm; mobile phase: 80% A: 0.1% formic acid + 0.1% trifluoroacetic acid + 98% deionized water, 20% B: 100% acetonitrile; flow rate: 0.8 mL/min; column temperature: 30 °C; injection volume: 10 μL. The ACE-inhibition rate was calculated by Formula (1):(1) ACEinhibitoryrate%=(HAc−HAs)/([HA]c−[HA]H)×100% where HA is the concentration of hippuric acid, [HA]c is the concentration of HA in the control sample, [HA]s is the sample HA concentration, and [HA]H is the blank control HA concentration. The IC50 value was defined as the inhibitor concentration inhibiting 50% of ACE activity. First, the in vitro ACE inhibition rate was determined for samples of different concentrations. Then, the fitting curve and equation were drawn with the sample mass concentration as abscissa and ACE inhibition rate as ordinate. The value of IC50 was calculated according to the fitted curve.

ACE [3] = molecular target: T1, ACE; assay: ACE-inhibitory activity after simulated in vitro gastrointestinal digestion (pepsin, trypsin); type: biochemical; conditions: pepsin pH 2, 2 h, then trypsin pH 7.5, 2 h, 37 °C; mean ± SD
Experimental: as §1
A slight modification of the research methodology based on the previous study was implemented. With slight modification, the peptide samples were dissolved in deionized water (1 mg/mL), adjusted the pH to 2 with 1 M HCl, pepsin (2% w/w) was added, and the reaction was run for 2 h at 37 °C in the temperature shaker. The reaction was adjusted to pH = 7.5 with 2 M NaOH, and trypsin (2% w/w) was added for 2 h. Then, it was placed in boiling water at 100 °C for 10 min and finally removed to wait for the temperature to decrease to room temperature and centrifuged to detect their ACE activity.

Row | Substance | IC50 (ACE [2]) [µM] | IC50 (ACE [3]) [µM] | other results
1 | FDGSPVGY | – | – | Form of ACE inhibition (ACE [1]): competitively combine with the center site of ACE
2 | FYEPFM [FYEPFM, Phe-Tyr-Glu-Pro-Phe-Met] | 10.3 ± 0.21 | 11.4 ± 0.43 | –
3 | IHFGTTGK [IHFGTTGK, Ile-His-Phe-Gly-Thr-Thr-Gly-Lys] | 5.34 ± 0.15 | 33.73 ± 0.23 | –
4 | INEMLDTK [INEMLDTK, Ile-Asn-Glu-Met-Leu-Asp-Try-Lys] | 6.53 ± 0.21 | 15.65 ± 0.15 | –
5 | IPYADFK [IPYADFK, Ile-Pro-Tyr-Ala-Asp-Phe-Lys] | 0.63 ± 0.09 | 0.8 ± 0.08 | –
6 | LYDHLGK [LYDHLGK, Leu-Tyr-Asp-His-Leu-Gly-Lys] | 9.41 ± 0.24 | 24.3 ± 0.29 | –
7 | NWPWMK [NWPWMK, Asn-Trp-Pro-Trp-Met-Lys] | 6.23 ± 0.34 | 7.27 ± 0.17 | –
8 | Tyr-Asn-Leu [YNL] | – | – | Reported activity (ACE [1]): ACE-inhibitory activity
9 | VFDGVLRPGQ | – | – | Form of ACE inhibition (ACE [1]): non-competitive inhibition
10 | VGLFPSRSF | – | – | Form of ACE inhibition (ACE [1]; peptide from tilapia skin): non-competitive inhibition
11 | VVLASLK | – | – | IC50 (ACE [1]; peptides from Pacific saury): 962 µM
